US6599548B2, “Ambient stable beverage” (priority 2000, dated 2003)
Converted amounts (≈) assume the structure as drawn. Read-outs that look alike come from different tables or passages of the source.

Assays:
Assay type in all cases: cell-based
[1] = system: fungi; test: Fungicidal activity of pasteurisation adjuncts at 50° C. versus 30° C. (MIC50); conditions: for Importance: rating of importance as pasteurisation adjunct
Method: In the table the minimum inhibitory concentration (MIC) is given for each compound as well as the molecular weight (M.W.), the logPoct and a rating of its importance. […] The logPoct, that is the logarithm of the partition coefficient of the relevant compound in octanol and thus a measure of its […], was determined using […]™ software from the CHEMOFFICE ULRA ENHANCED 2000™ software package (version 5.5) that is commercially available from CambridgeSoft.

[2] = Minimum inhibitory concentration (MIC) of antimicrobials / essential oils
From the text: The minimum inhibitory concentration (MIC) is given for each compound.
In each case the respective minimum inhibitory concentration (MIC) and their specific preferred concentration is also given.

[3] = system: yeast Saccharomyces cerevisiae X2180-1B; test: Yeast growth in Ready to Drink tea (0.14% tea, pH 3.4) after 2 min at temperature, OD 600 nm at 14 days; conditions: RTD tea; for prevention of yeast growth by low levels of the adjunct: adjunct 0-12 ppm in combination with cinnamic acid 0-60 ppm
[4] = read-out: MIC50 in ppm (in brackets under the mM value)
[5] = minimum inhibitory concentration, fungicidal activity when heated to 50° C.
[6] = Table I, preferred essential oils
[7] = Table II, particularly preferred essential oils
[8] = 20° C., adjunct 0-12 ppm, cinnamic acid 0-60 ppm

Compound | Importance [1] | other results
CCCCCCCCCC=CC=O [2-Dodecenal] | High | MIC50 [1, 4]: < 9 µg/mL
CC(C)C(=O)OCCOc1ccccc1 [2-Phenoxylethyl isobutyrate] | High | 
CCCCCCCCCCC=CC=O [2-Tridecenal] | High | MIC50 [1, 4]: < 9.8 µg/mL
CCCCCCCCCC(C)=O [2-Undecanone] | High | 
C=CCOC(=O)CCC1CCCCC1 [Allyl cyclohexanepropionate] | High | 
CCCCCOC(=O)CCCCC [Amyl hexanoate] | High | 
O=C(c1ccccc1)C(O)c1ccccc1 (centres unmarked) [Benzoin] | 10 | 
CCCCCCC(=O)OCCCC [Butyl heptanoate] | High | 
C=C(C)C1CC=C(C)C(OC(=O)CC)C1 (centres unmarked) [Carvyl propionate] |  | MIC50 [1, 5]: 5 mM
O=C(O)C=Cc1ccccc1 [Cinnamic acid] |  | MIC [2, 6]: 148 µg/mL (≈ 999 µM); MIC (ppm) [2, 7]: 148 ppm
CC(C)c1ccc(CO)cc1 [Cumic alcohol] |  | MIC (ppm) [2, 6]: 450 ppm; MIC (ppm) [2, 7]: 450 ppm
CCCCCCCCCCOC(C)=O [Decyl acetate] | High | fungicidal activity at 30° C. [1]: no fungicidal activity; fungicidal activity when heated to 50° C. [1]: significant fungicidal activity; effect on yeast growth at low temperature [3, 8]: little effect; effect on yeast growth at low temperature ([3]; FIGS. 23, 24, adjunct alone 0-200 ppm, low temperature): little effect; prevention of yeast growth by low levels of the adjunct [3]: prevention of yeast growth
CCCCCCCCCCOC(=O)CC [Decyl propionate] | High | 
C=C(C)C1CCC(C)C(O)C1 (centres unmarked) [Dihydrocarveol] |  | MIC (ppm) [2, 6]: 540 ppm
CCCCCCCC=CC(=O)OCC [Ethyl 2-decenoate] | High | 
C=CCCCCCCCCC(=O)OCC [Ethyl 10-undecenoate] | High | 
CCCCCCCCCC(=O)OCC [Ethyl decanoate] | High | 
CCCCCCCCC(=O)OCC [Ethyl nonanoate] | High | 
CC(=O)OC/C=C(\C)CCC=C(C)C [Geranyl acetate] | High | 
CC(=O)CC/C=C(\C)CCC=C(C)C [Geranyl acetone] | High | 
CCCC(=O)OC/C=C(\C)CCC=C(C)C [Geranyl butyrate] | High | 
CCC(=O)OC/C=C(\C)CCC=C(C)C [Geranyl propionate] | High | 
CCCCCCCOC(=O)CCC [Heptyl butyrate] | High | 
CCCCCCOC(=O)CCCCC [Hexyl hexanoate] | High | 
CCCCCC(=O)OCCC(C)C [Isoamyl hexanoate] | High | 
CCCCCCCCCCCC(=O)O [Lauric acid] | High | MIC50 [1, 4]: 20 µg/mL
CCCCCCCCCCCCO [Lauric alcohol] | High | MIC50 [1, 5]: 0.1 mM; MIC50 in ppm (in brackets under the mM value) [1, 5]: (18.6 ppm; effect on yeast growth at low temperature [3, 8]: little effect; prevention of yeast growth by low levels of the adjunct [3]: prevention of yeast growth
CCCCCCCCCCCC=O [Lauric aldehyde] | High | MIC50 [1, 5]: 0.2 mM; MIC50 in ppm (in brackets under the mM value) [1, 5]: (36 ppm

Compound | Importance [1] | other results
CCCCCCCCCC(=O)OC [Methyl decanoate] | High | 
CCCCCCCCCCCC(=O)OC [Methyl laurate] | High | 
CCCCCCCCC(=O)OC [Methyl nonanoate] | High | 
CCCCCCCCCCC(=O)OC [Methyl undecanoate] | High | 
CC=CCCCCCCCC(=O)OC [Methyl-9-undecenoate] | High | 
CCCCCCCCCCCCCC(=O)O [Myristic acid] | High | 
CC1(C)C2CC=C(CO)C1C2 (centres unmarked) [Myrtenol] |  | MIC (ppm) [2, 6]: 137 ppm; MIC (ppm) [2, 7]: 137 ppm
CC1CCC(C(C)C)C(O)C1 (centres unmarked) [Neomenthol] |  | MIC (ppm) [2, 6]: 156 ppm
C=CC(C)(O)CCC=C(C)CCC=C(C)C (centres unmarked) [Nerolidol] | High | 
CC(C)=CCC/C(C)=C\COC(=O)C(C)C [Neryl isobutyrate] | High | 
CCCCCCCCCOC(C)=O [Nonyl acetate] | High | 
CCCCCCCCOC(=O)CCC [Octyl butyrate] | High | 
CCCCCC(=O)OCCc1ccccc1 [Phenethyl hexanoate] | High | 
CC(=O)OCc1ccc2c(c1)OCO2 [Piperonyl acetate] |  | MIC [2, 6]: 242 µg/mL; MIC (ppm) [2, 7]: 242 ppm
CC=CC=CC=O [Sorbic aldehyde (2,4-hexadienal)] |  | MIC (ppm) [2, 6]: 86 ppm
CCCCCCCCCCCCC=O [Tridecanal] | High | 
CCCCCCCCCCCCC(=O)O [Tridecanoic acid] | High | 
CCCCCCCCCCCCCO [Tridecanol] | High | 
O=C1CCCCCCCCCCCCCCO1 [w-Pentadecalactone] |  | MIC50 [1, 5]: 60 mM
C/C(C=O)=C\c1ccccc1 [α-Methyl-trans-cinnamaldehyde] |  | MIC (ppm) [2, 6]: 58.4 ppm
C=C1CC/C=C(\C)CC[C@@H]2[C@@H]1CC2(C)C [β-Caryophylene] |  | MIC50 [1, 5]: 70 mM
CCCCCC1CCC(=O)O1 (centres unmarked) [γ-Nonanoic lactone] |  | MIC (ppm) [2, 6]: 63 ppm
CCCCCCCC1CCC(=O)O1 (centres unmarked) [γ-Undecalactone] |  | MIC (ppm) [2, 6]: 28 ppm
CCCC1CCCC(=O)O1 (centres unmarked) [δ-Octalactone] |  | MIC (ppm) [2, 6]: 568 ppm
Tolualdehyde |  | MIC (ppm) [2, 6]: 240 ppm
methyl decenoate |  | fungicidal activity at 30° C. [1]: no fungicidal activity; fungicidal activity when heated to 50° C. [1]: significant fungicidal activity
w-6-Hexadecalactone |  | MIC50 [1, 5]: 50 mM
